Assay results reported in patent US8895726B2, “Compounds derived from indole and pharmaceutical compositions containing them” (The Institut Curie, priority 2007, dated 2014).

Target: T1, interaction between hUPF1 and hUPF3X (Homo sapiens, UniProt Q92900+Q9BZI7)
T1 construct: the hUPF1 protein was immunoprecipitated from HeLa cell extracts; endogenous in cells; host or cells: HeLa
T1 sequence (Q92900 1-1129): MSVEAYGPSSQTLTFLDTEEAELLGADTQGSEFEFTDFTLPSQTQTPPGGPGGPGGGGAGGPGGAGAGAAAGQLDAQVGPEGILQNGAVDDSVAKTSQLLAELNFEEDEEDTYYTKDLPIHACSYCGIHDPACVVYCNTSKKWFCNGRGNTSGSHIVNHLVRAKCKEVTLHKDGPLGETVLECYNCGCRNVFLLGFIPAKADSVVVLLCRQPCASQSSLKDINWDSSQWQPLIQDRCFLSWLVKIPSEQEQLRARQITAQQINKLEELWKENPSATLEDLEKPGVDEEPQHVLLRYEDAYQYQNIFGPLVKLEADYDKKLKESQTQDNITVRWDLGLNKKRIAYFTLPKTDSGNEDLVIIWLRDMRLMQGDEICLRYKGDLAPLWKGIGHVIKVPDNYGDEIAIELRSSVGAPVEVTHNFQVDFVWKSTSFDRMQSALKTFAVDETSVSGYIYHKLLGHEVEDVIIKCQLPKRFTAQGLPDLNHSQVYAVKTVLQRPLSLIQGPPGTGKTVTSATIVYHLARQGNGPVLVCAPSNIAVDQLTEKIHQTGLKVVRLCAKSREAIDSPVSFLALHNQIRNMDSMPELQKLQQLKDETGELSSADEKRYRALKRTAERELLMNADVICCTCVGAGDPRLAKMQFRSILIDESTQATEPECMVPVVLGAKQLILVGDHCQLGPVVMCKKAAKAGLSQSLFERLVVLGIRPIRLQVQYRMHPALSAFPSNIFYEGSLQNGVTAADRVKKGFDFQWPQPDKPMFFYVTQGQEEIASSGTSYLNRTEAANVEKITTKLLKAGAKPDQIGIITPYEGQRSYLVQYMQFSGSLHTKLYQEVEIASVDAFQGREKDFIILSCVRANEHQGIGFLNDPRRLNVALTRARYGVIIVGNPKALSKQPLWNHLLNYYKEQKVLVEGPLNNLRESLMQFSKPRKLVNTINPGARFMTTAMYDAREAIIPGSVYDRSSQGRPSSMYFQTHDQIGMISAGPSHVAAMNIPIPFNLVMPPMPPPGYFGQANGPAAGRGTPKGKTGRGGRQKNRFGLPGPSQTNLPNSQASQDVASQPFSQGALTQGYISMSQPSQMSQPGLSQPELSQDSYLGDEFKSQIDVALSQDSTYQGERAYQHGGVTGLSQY
T1 sequence (Q9BZI7 1-483): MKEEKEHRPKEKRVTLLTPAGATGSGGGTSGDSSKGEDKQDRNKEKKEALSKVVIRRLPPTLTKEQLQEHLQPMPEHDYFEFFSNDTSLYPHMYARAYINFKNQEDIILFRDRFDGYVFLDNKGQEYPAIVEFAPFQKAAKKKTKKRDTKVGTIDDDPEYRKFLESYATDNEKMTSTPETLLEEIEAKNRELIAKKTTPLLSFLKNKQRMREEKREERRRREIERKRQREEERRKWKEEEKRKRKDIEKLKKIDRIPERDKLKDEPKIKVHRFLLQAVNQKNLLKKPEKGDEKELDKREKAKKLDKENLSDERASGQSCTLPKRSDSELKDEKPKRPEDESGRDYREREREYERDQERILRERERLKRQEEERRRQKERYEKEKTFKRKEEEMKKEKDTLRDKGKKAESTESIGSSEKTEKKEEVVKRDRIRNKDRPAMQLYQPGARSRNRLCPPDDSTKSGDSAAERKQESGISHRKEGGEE
Experiment: hUPF1 immunoprecipitation, presence of hUPF3X
Type: cell-based
Conditions: HeLa cell extracts, compound added 20 hours before IP
Method: Immunopurification of hUPF1 and western blot analysis were carried out according to a procedure described earlier (Lejeune and Maquat, 2004) by using an anti-hUPF1 antibody (Ohnishi et al., 2003), The western blot analyses were conducted by using a 1/250 dilution of anti-hUPF1, anti-hSMG5, anti-hSMG6 or anti-hSMG7 rabbit antibodies (Ohnishi et al., 2003), a 1/1000 dilution of anti-hUPF3/3X rabbit antibody (Ishigaki et al., 2001) or of anti-TUBILIN mouse antibody (SIGMA-ALDRICH). The proteins were detected by using the <<SuperSignal West Pico Chemiluminescent Substrate>> or <<SuperSignal West Femto Maximum Sensitivity Substrate>> (PIERCE).
In the light of the previous results, it was contemplated that the compound 70 would be able to prevent recruitment of hUPF1 to EJC via its interaction with other hUPF proteins. For this purpose, the hUPF1 protein was immunoprecipitated from HeLa cell extracts under conditions preserving the integrity of mRNPs (Lejeune and Maquat, 2004).
The compound 70 of DMSO(−) was added to cultures of cells 20 hours before immunoprecipitation (IP).

Cc1c2ccnc(Cl)c2c(C)c2c1[nH]c1ncccc12 [Compound 70, 6-Chloro-5,1-0dimethyl-11H-pyrido[3′,2′:4,5]-pyrrolo[3,2-g]isoquinoline]
interaction between hUPF1 and hUPF3X: not abolished
